20 compounds from US8017612B2, “Piperazine compound and use thereof as a HCV polymerase inhibitor” (priority 2006, dated 2011) can be followed below.

Experiment [1] deals with T1, HCV polymerase (NS5B) type 1b (Hepatitis C virus genotype 1b, UniProt P26663).
T1 construct: a region encoding NS5B (J Virol 1991 March, 65(3), 1105-13, 544 amino acids after deletion of 47 amino acids on the C-terminal); 6xHis (C); made in house; host or cells: Escherichia coli
The experiment in a line: Assay of enzyme (HCV polymerase) inhibitory activity, type 1b enzyme. The class given is biochemical, HCV BK strain (type 1b). Conditions: HCV polymerase inhibitory activity (IC50), 1b, type 1b enzyme 0.5 μg/ml, 25° C., 60 min. An outline of the steps:
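Polymerase activity was followed as radiolabelled UTP incorporation by E. coli-expressed, His-tagged NS5B of HCV type 1b lacking its last 47 residues. Conditions: 2 μM UTP, 50 μM other NTPs, Mg2+ buffer at pH 7.5, 25 °C for 60 min. Inhibition relative to compound-free reactions gave IC50.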

For experiment [2], the target named is T2, HCV polymerase (NS5B) type 1a (Hepatitis C virus genotype 1a, UniProt P26664).
T2 construct: made in house; host or cells: Escherichia coli (by the 'similar method' of the 1b enzyme)
The experiment in a line: Assay of enzyme (HCV polymerase) inhibitory activity, type 1a enzyme. The class given is biochemical, HCV type 1a (cloned from the blood of patients). Conditions: HCV polymerase inhibitory activity (IC50), 1a, type 1a enzyme 1.5 μg/ml, 25° C., 60 min. The method in brief:
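IC50 values derive from radioactivity of newly synthesized RNA with versus without test compound. The enzyme was C-terminally truncated type 1a NS5B, 1.5 μg/ml, run 60 min at 25° C with 3H-UTP-labelled nucleotides.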

SMILES strings stand for the structures. A value given as a limit tells only on which side of the number the result lay.

By IC50 is commonly meant the concentration needed to halve the response being measured. Read a high IC50 as a need for much substance. As for `CCC(F)(F)c1ccc(CNC(=O)[C@H]2CN(C(=O)Nc3ccnc(C(=O)N(C)C)c3)CCN2S(=O)(=O)c2ccc(OC(F)(F)F)cc2)cc1` [Example 504, (R)-4-(4-trifluoromethoxy-benzenesulfonyl)-piperazine-1,3-dicarboxylic acid 3-[4-(1,1-difluoro-propyl)-benzylamide] 1-[(2-dimethylcarbamoyl-pyridin-4-yl)-amide]], the half-inhibitory concentration (IC50) in experiment [1] and in experiment [2] was below 100 nM each time.
As for `CCCc1ccc(CNC(=O)[C@H]2CN(c3nc(C)c(CN(C)C)s3)CCN2S(=O)(=O)c2ccc(OC(F)(F)F)cc2)cc1` [Example 505, (R)-4-(5-dimethylaminomethyl-4-methyl-thiazol-2-yl)-1-(4-trifluoromethoxy-benzenesulfonyl)-piperazine-2-carboxylic acid 4-propyl-benzylamide], the IC50 in experiment [1] and in experiment [2] was below 100 nM each time.
For the compound `CCCc1ccc(CNC(=O)[C@H]2CN(c3nc(C)c(CNC)s3)CCN2S(=O)(=O)c2ccc(OC(F)(F)F)cc2)cc1` [Example 506, (R)-4-(4-methyl-5-methylaminomethyl-thiazol-2-yl)-1-(4-trifluoromethoxy-benzenesulfonyl)-piperazine-2-carboxylic acid 4-propyl-benzylamide], the IC50 in experiment [1] and in experiment [2] was below 100 nM in each case.
As to `CCCc1ccc(CNC(=O)[C@H]2CN(c3cnc(C(=O)OC)c(N)n3)CCN2S(=O)(=O)c2ccc(OC(F)(F)F)cc2)cc1` [Example 507, (R)-6′-amino-3-(4-propyl-benzylcarbamoyl)-4-(4-trifluoromethoxy-benzenesulfonyl)-3,4,5,6-tetrahydro-2H-[1,2′]bipyrazinyl-5′-carboxylic acid methyl ester], the IC50 in experiment [1] and in experiment [2] was below 100 nM each time.
As to `CCC(F)(F)c1ccc(CNC(=O)[C@H]2CN(C(=O)Cc3ccncc3)CCN2S(=O)(=O)c2ccc(OC(F)(F)F)cc2)cc1` [Example 508, (R)-4-(2-pyridin-4-yl-acetyl)-1-(4-trifluoromethoxy-benzenesulfonyl)-piperazine-2-carboxylic acid 4-(1,1-difluoro-propyl)-benzylamide], the IC50 in experiment [1] and in experiment [2] was below 100 nM in each case.
`CCCc1ccc(CNC(=O)[C@H]2CN(c3nc(C)c(C(=O)O)s3)CCN2S(=O)(=O)c2ccc(OC(F)(F)F)c(F)c2)cc1` [Example 509, 2-[(R)-4-(3-fluoro-4-trifluoromethoxy-benzenesulfonyl)-3-(4-propyl-benzylcarbamoyl)-piperazin-1-yl]-4-methyl-thiazole-5-carboxylic acid]: the half-maximal inhibitory concentration (IC50) in experiment [1] and in experiment [2] was below 100 nM throughout.
For the compound `CCCc1ccc(CNC(=O)[C@H]2CN(c3nc(CO)cs3)CCN2S(=O)(=O)c2ccc(OC(F)(F)F)cc2)cc1` [Example 510, (R)-4-(4-hydroxymethyl-thiazol-2-yl)-1-(4-trifluoromethoxy-benzenesulfonyl)-piperazine-2-carboxylic acid 4-propyl-benzylamide], the IC50 in experiment [1] and in experiment [2] was below 100 nM in each case.
Consider `CCC(F)(F)c1ccc(CNC(=O)[C@H]2CN(C(=O)Nc3ccnc(CO)c3)CCN2S(=O)(=O)c2ccc(OC(F)(F)F)cc2)cc1` [Example 511, (R)-4-(4-trifluoromethoxy-benzenesulfonyl)-piperazine-1,3-dicarboxylic acid 3-[4-(1,1-difluoro-propyl)-benzylamide] 1-[(2-hydroxymethyl-pyridin-4-yl)-amide]], for which the IC50 in experiment [1] and in experiment [2] was below 100 nM in each case.
For the compound `CCC(F)(F)c1ccc(CNC(=O)[C@H]2CN(C(=O)Nc3ccnc(C(=O)NC4CC4)c3)CCN2S(=O)(=O)c2ccc(OC(F)(F)F)cc2)cc1` [Example 512, (R)-4-(4-trifluoromethoxy-benzenesulfonyl)-piperazine-1,3-dicarboxylic acid 1-[(2-cyclopropylcarbamoyl-pyridin-4-yl)-amide] 3-[4-(1,1-difluoro-propyl)-benzylamide]], the concentration for half-maximal inhibition (IC50) in experiment [1] and in experiment [2] was below 100 nM throughout.
With `CCC(F)(F)c1ccc(CNC(=O)[C@H]2CN(C(=O)Nc3ccnc(C(=O)N4CCOCC4)c3)CCN2S(=O)(=O)c2ccc(OC(F)(F)F)cc2)cc1` [Example 513, (R)-4-(4-trifluoromethoxy-benzenesulfonyl)-piperazine-1,3-dicarboxylic acid 3-[4-(1,1-difluoro-propyl)-benzylamide] 1-{[2-(morpholine-4-carbonyl)-pyridin-4-yl]-amide}], the IC50 in experiment [1] and in experiment [2] was below 100 nM throughout.
`CCC(F)(F)c1ccc(CNC(=O)[C@H]2CN(C(=O)Nc3ccnc(C(=O)N4CCCC4)c3)CCN2S(=O)(=O)c2ccc(OC(F)(F)F)cc2)cc1` [Example 514, (R)-4-(4-trifluoromethoxy-benzenesulfonyl)-piperazine-1,3-dicarboxylic acid 3-[4-(1,1-difluoro-propyl)-benzylamide] 1-{[2-(pyrrolidine-1-carbonyl)-pyridin-4-yl]-amide}]: the IC50 in experiment [1] and in experiment [2] was below 100 nM throughout.
Turning to `CCCc1ccc(CNC(=O)[C@H]2CN(c3cnc(C(=O)OC)c(NC(C)=O)n3)CCN2S(=O)(=O)c2ccc(OC(F)(F)F)cc2)cc1` [Example 515, (R)-6′-acetylamino-3-(4-propyl-benzylcarbamoyl)-4-(4-trifluoromethoxy-benzenesulfonyl)-3,4,5,6-tetrahydro-2H-[1,2′]bipyrazinyl-5′-carboxylic acid methyl ester], the IC50 in experiment [1] and in experiment [2] was below 100 nM throughout.
Consider `CCCc1ccc(CNC(=O)[C@H]2CN(c3n[nH]c(=O)s3)CCN2S(=O)(=O)c2ccc(OC(F)(F)F)cc2)cc1` [Example 516, (R)-4-(5-oxo-4,5-dihydro-[1,3,4]thiadiazol-2-yl)-1-(4-trifluoromethoxy-benzenesulfonyl)-piperazine-2-carboxylic acid 4-propyl-benzylamide], for which the IC50 in experiment [1] and in experiment [2] was below 100 nM each time.
Turning to `CCC(F)(F)c1ccc(CNC(=O)[C@H]2CN(C(=O)Nc3ccnc(Cl)c3)CCN2S(=O)(=O)c2ccc(OC(F)(F)F)cc2)cc1` [Example 517, (R)-4-(4-trifluoromethoxy-benzenesulfonyl)-piperazine-1,3-dicarboxylic acid 1-[(2-chloro-pyridin-4-yl)-amide] 3-[4-(1,1-difluoro-propyl)-benzylamide]], the concentration for half-maximal inhibition (IC50) in experiment [1] and in experiment [2] was below 100 nM in each case.
As for `CCC(F)(F)c1ccc(CNC(=O)[C@H]2CN(C(=O)Cc3nnn(C)n3)CCN2S(=O)(=O)c2ccc(OC(F)(F)F)cc2)cc1` [Example 518, (R)-4-[2-(2-methyl-2H-tetrazol-5-yl)-acetyl]-1-(4-trifluoromethoxy-benzenesulfonyl)-piperazine-2-carboxylic acid 4-(1,1-difluoro-propyl)-benzylamide], the concentration for half-maximal inhibition (IC50) in experiment [1] and in experiment [2] was below 100 nM throughout.
For `CCC(F)(F)c1ccc(CNC(=O)[C@H]2CN(C(=O)Cc3nnnn3C)CCN2S(=O)(=O)c2ccc(OC(F)(F)F)cc2)cc1` [Example 519, (R)-4-[2-(1-methyl-1H-tetrazol-5-yl)-acetyl]-1-(4-trifluoromethoxy-benzenesulfonyl)-piperazine-2-carboxylic acid 4-(1,1-difluoro-propyl)-benzylamide], the 50% inhibitory concentration (IC50) in experiment [1] and in experiment [2] was 100 to 1000 nM each time.
As to `CCC(F)(F)c1ccc(CNC(=O)[C@H]2CN(C(=O)c3cscn3)CCN2S(=O)(=O)c2ccc(OC(F)(F)F)cc2)cc1` [Example 520, (R)-4-(thiazole-4-carbonyl)-1-(4-trifluoromethoxy-benzenesulfonyl)-piperazine-2-carboxylic acid 4-(1,1-difluoro-propyl)-benzylamide], the IC50 is 100 to 1000 nM in experiment [1] and above 1000 nM in experiment [2].
Taken in the same sequence, the figures for `CCC(F)(F)c1ccc(CNC(=O)[C@H]2CN(C(=O)c3cc(C)on3)CCN2S(=O)(=O)c2ccc(OC(F)(F)F)cc2)cc1` [Example 521, (R)-4-(5-methyl-isoxazole-3-carbonyl)-1-(4-trifluoromethoxy-benzenesulfonyl)-piperazine-2-carboxylic acid 4-(1,1-difluoro-propyl)-benzylamide] were 100 to 1000 nM and above 1000 nM.
Taken in the same sequence, the figures for `CCCc1ccc(CNC(=O)[C@H]2CN(c3cnc(C(=O)O)cn3)CCN2S(=O)(=O)c2ccc(CC)s2)cc1` [Example 522, (R)-4-(5-ethyl-thiophene-2-sulfonyl)-3-(4-propyl-benzylcarbamoyl)-3,4,5,6-tetrahydro-2H-[1,2′]bipyrazinyl-5′-carboxylic acid] were below 100 nM and below 100 nM.
Turning to `Cc1cc(N2CCN(S(=O)(=O)c3ccc(OC(F)(F)F)cc3)[C@@H](C(=O)NCc3ccc(C(C)C)cc3)C2)n[nH]1` [Example 523, (R)-4-(5-methyl-1H-pyrazol-3-yl)-1-(4-trifluoromethoxy-benzenesulfonyl)-piperazine-2-carboxylic acid 4-isopropyl-benzylamide], the IC50 in experiment [1] and in experiment [2] was 100 to 1000 nM each time.
